Experimental data: patent publication US9738604B2, “Ethynylbenzene derivatives” (Duke University, priority 2010, dated 2017)
In brackets after ≈: the same amount, converted by molar mass. Read-outs that look alike come from different tables or passages of the source.

Columns and labels:
Type in all cases: cell-based
E. coli W3110PA = assay: microbe, parasite or virus in culture; details: for MIC: Escherichia coli, W3110PA, 22 h, read-out: MIC E. coli W3110PA; for MIC E. coli W3110PA: E. coli with lpxC of P. aeruginosa, 22 hours at 37° C., MTT
E. coli W3110RL = assay: microbe, parasite or virus in culture; details: for MIC: Escherichia coli, W3110RL, 22 h, read-out: MIC E. coli W3110RL; for MIC E. coli W3110RL: E. coli with lpxC of R. leguminosarum, 22 hours at 37° C., MTT
E. coli W3110 = assay: microbe, parasite or virus in culture; details: for MIC: Escherichia coli, W3110, 22 h, read-out: MIC E. coli W3110
P. aeruginosa (PAO1) = assay: MIC, P. aeruginosa; details: for MIC: Pseudomonas aeruginosa, read-out: MIC P. aeruginosa (PAO1)
[1] = P. aeruginosa PAO1, 22 hours at 37° C., MTT

SMILES	MIC (E. coli W3110PA)	MIC (E. coli W3110RL)	MIC (E. coli W3110)	MIC (P. aeruginosa (PAO1); [1])	MIC (P. aeruginosa (PAO1); PAO1, 22 h)	MIC E. coli W3110PA (E. coli W3110PA)	MIC E. coli W3110RL (E. coli W3110RL)	MIC E. coli W3110 (E. coli W3110)	MIC P. aeruginosa (PAO1) (P. aeruginosa (PAO1); [1])	MIC E. coli W3110 (E. coli W3110; wild-type E. coli W3110, 22 hours at 37° C., MTT)
O=C(NO)C(Cc1ccc2ccccc2c1)NS(=O)(=O)c1ccc2ccccc2c1 (stereo not drawn)	> 100 µg/mL	> 100 µg/mL	1 to 10 µg/mL (≈ 2.38 to 23.8 µM)	> 100 µg/mL						
C[C@@H](O)[C@H](NC(=O)c1ccc(C#Cc2ccccc2)cc1)C(=O)NO	< 1 µg/mL	> 100 µg/mL	< 1 µg/mL	1 to 10 µg/mL (≈ 2.96 to 29.6 µM)						
CCCc1cc(C2=N[C@@H](C(=O)NO)CO2)cc(OC)c1OC	> 100 µg/mL	> 100 µg/mL								
C[C@@H](O)[C@H](NC(=O)c1ccc(C#CC#CCN(C)C)cc1)C(=O)NO [CPD-007, 4-(5-(dimethylamino)penta-1,3-diynyl)-N-((2S,3R)-3-hydroxy-1-(hydroxyamino)-1-oxobutan-2-yl)benzamide]	1 to 10 µg/mL (≈ 2.91 to 29.1 µM)	> 100 µg/mL	1 to 10 µg/mL (≈ 2.91 to 29.1 µM)		1 to 10 µg/mL (≈ 2.91 to 29.1 µM)					
C[C@@H](O)[C@H](NC(=O)c1ccc(C#CC#Cc2ccccc2)cc1)C(=O)NO [CPD-009, N-((2S,3R)-3-hydroxy-1-(hydroxyamino)-1-oxobutan-2-yl)-4-(phenylbuta-1,3-diynyl)benzamide]	< 1 µg/mL	1 to 10 µg/mL (≈ 2.76 to 27.6 µM)	< 1 µg/mL		< 1 µg/mL					
Nc1ccc(C#CC#Cc2ccc(C(=O)N[C@@H](Cc3c[nH]cn3)C(=O)NO)cc2)cc1 [CPD-014, (2S)-2-({4′-[4′-(4′-aminophenyl)buta-1′,3′-diyn-1′-yl]phenyl}formamido)-N-hydroxy-3-(1′H-imidazol-4′-yl)propanamide]						B (1-10 μg/mL)	E (>100 μg/mL)	A (key: A: <1 μg/mL; B: 1-10 μg/mL; C: 11-50 μg/mL; D: 51-100 μg/mL; E: >100 μg/mL)	B (1-10 μg/mL)	
Nc1cccc(C#CC#Cc2ccc(C(=O)N[C@@H](Cc3c[nH]cn3)C(=O)NO)cc2)c1 [CPD-015, (2S)-2-({4′-[4′-(3′-aminophenyl)buta-1′,3′-diyn-1′-yl]phenyl}formamido)-N-hydroxy-3-(1′H-imidazol-4′-yl)propanamide]	51 to 100 µg/mL (≈ 123 to 242 µM)	> 100 µg/mL	< 1 µg/mL		1 to 10 µg/mL (≈ 2.42 to 24.2 µM)					
Nc1ccccc1C#CC#Cc1ccc(C(=O)N[C@@H](Cc2c[nH]cn2)C(=O)NO)cc1 [CPD-016, (2S)-2-({4′-[4′-(2′-aminophenyl)buta-1′,3′-diyn-1′-yl]phenyl}formamido)-N-hydroxy-3′-(1′H-imidazol-4′-yl)propanamide]	51 to 100 µg/mL (≈ 123 to 242 µM)	> 100 µg/mL	1 to 10 µg/mL (≈ 2.42 to 24.2 µM)		> 100 µg/mL					
CC(C)(C)OC(=O)CC[C@H](NC(=O)c1ccc(C#CC#Cc2ccc(N)cc2)cc1)C(=O)NO [CPD-017, Tert-butyl (4S)-4-({4′-[4′-(4′-aminophenyl)buta-1′,3′-diyn-1′-yl]phenyl}formamido)-4-(hydroxycarbamoyl)butanoate]						E (>100 μg/mL)	E (>100 μg/mL)	C (key: A: <1 μg/mL; B: 1-10 μg/mL; C: 11-50 μg/mL; D: 51-100 μg/mL; E: >100 μg/mL)	E (>100 μg/mL)	
Nc1ccc(C#CC#Cc2ccc(C(=O)N[C@@H](CCC(=O)O)C(=O)NO)cc2)cc1 [CPD-018, (4S)-4-({4′-[4′-(4′-aminophenyl)buta-1′,3′-diyn-1′-yl]phenyl}formamido)-4-(hydroxycarbamoyl)butanoic acid]						D (51-100 μg/mL)	E (>100 μg/mL)		C (11-50 μg/mL)	B (1-10 μg/mL)
Nc1ccc(C#CC#Cc2ccc(C(=O)N[C@@H](CC(=O)O)C(=O)NO)cc2)cc1 [CPD-019, (3S)-3-({4′-[4′-(4′-aminophenyl)buta-1′,3′-diyn-1′-yl]phenyl}formamido)-3-(hydroxycarbamoyl)propane acid]						E (>100 μg/mL)	E (>100 μg/mL)	D (key: A: <1 μg/mL; B: 1-10 μg/mL; C: 11-50 μg/mL; D: 51-100 μg/mL; E: >100 μg/mL)	E (>100 μg/mL)	
C[C@H](NC(=O)c1ccc(C#CC#Cc2ccc(N)cc2)cc1)C(=O)NO [CPD-020, (2S)-2-({4′-[4′-(4′-aminophenyl)buta-1′,3′-diyn-1′-yl]phenyl}formamido)-N-hydroxypropanamide]						B (1-10 μg/mL)	B (1-10 μg/mL)	A (key: A: <1 μg/mL; B: 1-10 μg/mL; C: 11-50 μg/mL; D: 51-100 μg/mL; E: >100 μg/mL)	C (11-50 μg/mL)	
NC[C@H](NC(=O)c1ccc(C#CC#Cc2ccc(N)cc2)cc1)C(=O)NO [CPD-021, (2S)-3-amino-2-({4′-[4′-(4′-aminophenyl)buta-1′,3′-diyn-1-yl]phenyl}formamido)-N-hydroxypropanamide]						C (11-50 μg/mL)	E (>100 μg/mL)	B (key: A: <1 μg/mL; B: 1-10 μg/mL; C: 11-50 μg/mL; D: 51-100 μg/mL; E: >100 μg/mL)	B (1-10 μg/mL)	
CC(C)[C@H](NC(=O)c1ccc(C#CC#Cc2ccc(N)cc2)cc1)C(=O)NO [CPD-022, (2S)-2-({4′-[4′-(4′-aminophenyl)buta-1′,3′-diyn-1′-yl]phenyl}formamido)-N-hydroxy-3-methylbutanamide]						A (<1 μg/mL)	D (51-100 μg/mL)	A (key: A: <1 μg/mL; B: 1-10 μg/mL; C: 11-50 μg/mL; D: 51-100 μg/mL; E: >100 μg/mL)	B (1-10 μg/mL)	
CC[C@@H](C)[C@H](NC(=O)c1ccc(C#CC#Cc2ccc(N)cc2)cc1)C(=O)NO [CPD-023, (2S,3R)-2-({4′-[4′-(4′-aminophenyl)buta-1′,3′-diyn-1-yl]phenyl}formamido)-N-hydroxy-3-methylpentanamide]						B (1-10 μg/mL)	C (11-50 μg/mL)	A (key: A: <1 μg/mL; B: 1-10 μg/mL; C: 11-50 μg/mL; D: 51-100 μg/mL; E: >100 μg/mL)	D (51-100 μg/mL)	
Nc1ccc(C#CC#Cc2ccc(C(=O)NCC(=O)NO)cc2)cc1 [CPD-024, 2-({4′-[4′-(4′-aminophenyl)buta-1′,3′-diyn-1′-yl]phenyl}formamido)-N-hydroxyacetamide]						C (11-50 μg/mL)	E (>100 μg/mL)	A (key: A: <1 μg/mL; B: 1-10 μg/mL; C: 11-50 μg/mL; D: 51-100 μg/mL; E: >100 μg/mL)	D (51-100 μg/mL)	
Nc1ccc(C#CC#Cc2ccc(C(=O)N[C@@H](Cc3ccccc3)C(=O)NO)cc2)cc1 [CPD-025, (2S)-2-({4′-[4′-(4′-aminophenyl)buta-1′,3′-diyn-1′-yl]phenyl}formamido)-N-hydroxy-3-phenylpropanamide]						E (>100 μg/mL)	E (>100 μg/mL)	B (key: A: <1 μg/mL; B: 1-10 μg/mL; C: 11-50 μg/mL; D: 51-100 μg/mL; E: >100 μg/mL)	D (51-100 μg/mL)	
CC(C)C[C@H](NC(=O)c1ccc(C#CC#Cc2ccc(N)cc2)cc1)C(=O)NO [CPD-026, (2S)-2-({4′-[4′-(4′-aminophenyl)buta-1′,3′-diyn-1-yl]phenyl}formamido)-N-hydroxy-4-methylpentanamide]						E (>100 μg/mL)	E (>100 μg/mL)	B (key: A: <1 μg/mL; B: 1-10 μg/mL; C: 11-50 μg/mL; D: 51-100 μg/mL; E: >100 μg/mL)	E (>100 μg/mL)	
Nc1ccc(C#CC#Cc2ccc(C(=O)N[C@@H](CO)C(=O)NO)cc2)cc1 [CPD-027, (2S)-2-({4′-[4′-(4′-aminophenyl)buta-1′,3′-diyn-1′-yl]phenyl}formamido)-N,3-dihydroxypropanamide]						B (1-10 μg/mL)	C (11-50 μg/mL)	A (key: A: <1 μg/mL; B: 1-10 μg/mL; C: 11-50 μg/mL; D: 51-100 μg/mL; E: >100 μg/mL)	B (1-10 μg/mL)	
C[C@@](O)(C(F)F)[C@H](NC(=O)c1ccc(C#Cc2ccc(CN3CCOCC3)cc2)cc1)C(=O)NO [CPD-069, N-((2S,3S)-4,4-difluoro-3-hydroxy-1-(hydroxyamino)-3-methyl-1-oxobutan-2-yl)-4-((4-(morpholinomethyl)phenyl)ethynyl)benzamide]			< 1 µg/mL		1 to 10 µg/mL (≈ 2.05 to 20.5 µM)					
Nc1ccc(C#CC#Cc2ccc(C(=O)N[C@@H]3CN(O)C3=O)cc2)cc1 [CPD-071, (R)-4-((4-aminophenyl)buta-1,3-diynyl)-N-(1-hydroxy-2-oxoazetidin-3-yl)benzamide]			1 to 10 µg/mL (≈ 2.9 to 29 µM)		51 to 100 µg/mL (≈ 148 to 290 µM)					
C[C@](O)(c1c[nH]nn1)C(NC(=O)c1ccc(C#CC#Cc2ccc(N)cc2)cc1)C(=O)NO (stereo partly drawn) [CPD-072, 4-((4-aminophenyl)buta-1,3-diynyl)-N-((3R)-3-hydroxy-1-(hydroxyamino)-1-oxo-3-(1H-1,2,3-triazol-4-yl)butan-2-yl)benzamide]			< 1 µg/mL		< 1 µg/mL					
C[C@@](N)(C(F)F)C(NC(=O)c1ccc(C#CC#Cc2ccc(N)cc2)cc1)C(=O)NO (stereo partly drawn) [CPD-079, N-((3S)-3-amino-4,4-difluoro-1-(hydroxyamino)-3-methyl-1-oxobutan-2-yl)-4-((4-aminophenyl)buta-1,3-diynyl)benzamide]			< 1 µg/mL		< 1 µg/mL					
C[C@@](N)(C(F)F)[C@H](NC(=O)c1ccc(C#Cc2ccc(CN3CCOCC3)cc2)cc1)C(=O)NO [CPD-080, N-((2S,3S)-3-amino-4,4-difluoro-1-(hydroxyamino)-3-methyl-1-oxobutan-2-yl)-4-((4-(morpholinomethyl)phenyl)ethynyl)benzamide]			< 1 µg/mL		< 1 µg/mL					
